Test results: ChEMBL document CHEMBL4800727 (2021)
Active and inactive are the calls of the source. No cut-off for these calls is given here.

Experiments:
[1] = molecular target: 5-hydroxytryptamine receptor 1E (Homo sapiens) (UniProt P28566); details: Compound concentration 10.0 uM
[2] = molecular target: D(2) dopamine receptor (Homo sapiens) (UniProt P14416); details: Compound concentration 10.0 uM
[3] = molecular target: cAMP and cAMP-inhibited cGMP 3',5'-cyclic phosphodiesterase 10A (Mus musculus, UniProt Q8CA95); experiment: SPA with mouse PDE10A
[4] = molecular target: Inhibitor of nuclear factor kappa-B kinase subunit alpha (Homo sapiens) (UniProt O15111); experiment: conserved helix-loop-helix ubiquitous kinase Millipore kinase panel; details: Compound concentration 10.0 uM
[5] = molecular target: Cyclin-dependent kinase 1/cyclin B (Homo sapiens) (UniProt P06493+P14635+Q8WWL7+O95067); experiment: cyclin-dependent kinase 1 / clyclinB Millipore kinase panel; format: protein-complex assay; details: Compound concentration 10.0 uM
[6] = molecular target: Cyclin-dependent kinase 2/cyclin E (Homo sapiens) (UniProt P24864+P24941+O96020); experiment: cyclin-dependent kinase 2 /clyclinE Millipore kinase panel; format: protein-complex assay; details: Compound concentration 10.0 uM
[7] = molecular target: Cyclin-dependent kinase 5/CDK5 activator 1 (Homo sapiens) (UniProt Q00535+Q15078); experiment: cyclin-dependent kinase 5 / p35 Millipore kinase panel; format: protein-complex assay; details: Compound concentration 10.0 uM
[8] = molecular target: Ephrin type-A receptor 8 (Homo sapiens) (UniProt P29322); experiment: EPH receptor A8 Millipore kinase panel; details: Compound concentration 10.0 uM
[9] = molecular target: Ephrin type-B receptor 3 (Homo sapiens) (UniProt P54753); experiment: EPH receptor B3 Millipore kinase panel; details: Compound concentration 10.0 uM
[10] = molecular target: Tyrosine-protein kinase Fer (Homo sapiens) (UniProt P16591); experiment: fer (fps/fes related) tyrosine kinase Millipore kinase panel; details: Compound concentration 10.0 uM
Sequence of Tyrosine-protein kinase Fer (Homo sapiens) (P16591 whole entry, looked up): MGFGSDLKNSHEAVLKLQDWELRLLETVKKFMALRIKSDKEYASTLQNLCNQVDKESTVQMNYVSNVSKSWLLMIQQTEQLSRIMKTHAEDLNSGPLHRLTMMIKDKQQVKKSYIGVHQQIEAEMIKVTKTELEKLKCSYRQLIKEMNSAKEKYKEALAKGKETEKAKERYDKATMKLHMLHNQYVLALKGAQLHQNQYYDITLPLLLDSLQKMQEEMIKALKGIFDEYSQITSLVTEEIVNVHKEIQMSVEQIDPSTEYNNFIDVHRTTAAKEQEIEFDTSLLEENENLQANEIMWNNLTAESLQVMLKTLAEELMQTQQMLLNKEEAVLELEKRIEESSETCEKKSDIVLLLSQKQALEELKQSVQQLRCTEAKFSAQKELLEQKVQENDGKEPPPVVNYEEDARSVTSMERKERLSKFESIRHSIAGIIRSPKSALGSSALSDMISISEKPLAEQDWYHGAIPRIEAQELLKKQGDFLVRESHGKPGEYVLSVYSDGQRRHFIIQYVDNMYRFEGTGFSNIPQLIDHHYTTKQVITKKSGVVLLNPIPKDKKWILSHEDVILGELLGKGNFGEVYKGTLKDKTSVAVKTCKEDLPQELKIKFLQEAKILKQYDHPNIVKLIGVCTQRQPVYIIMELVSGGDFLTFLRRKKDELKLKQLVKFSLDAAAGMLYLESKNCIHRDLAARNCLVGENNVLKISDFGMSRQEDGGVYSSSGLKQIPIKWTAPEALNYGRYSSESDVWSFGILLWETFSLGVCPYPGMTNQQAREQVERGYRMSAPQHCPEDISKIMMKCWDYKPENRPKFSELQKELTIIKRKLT

[11] = molecular target: Fibroblast growth factor receptor 2 (Homo sapiens) (UniProt P21802); experiment: fibroblast growth factor receptor 2 Millipore kinase panel; details: Compound concentration 10.0 uM
[12] = molecular target: Receptor-type tyrosine-protein kinase FLT3 (Homo sapiens) (UniProt P36888); experiment: fms-related tyrosine kinase 3 Millipore kinase panel; details: Compound concentration 10.0 uM
[13] = molecular target: Tyrosine-protein kinase Fyn (Homo sapiens) (UniProt P06241); experiment: FYN oncogene related to SRC, FGR, YES Millipore kinase panel; details: Compound concentration 10.0 uM
[14] = molecular target: G protein-coupled receptor kinase 5 (Homo sapiens) (UniProt P34947); experiment: G protein-coupled receptor kinase 5 Millipore kinase panel; details: Compound concentration 10.0 uM
Sequence of G protein-coupled receptor kinase 5 (Homo sapiens) (P34947 whole entry, looked up): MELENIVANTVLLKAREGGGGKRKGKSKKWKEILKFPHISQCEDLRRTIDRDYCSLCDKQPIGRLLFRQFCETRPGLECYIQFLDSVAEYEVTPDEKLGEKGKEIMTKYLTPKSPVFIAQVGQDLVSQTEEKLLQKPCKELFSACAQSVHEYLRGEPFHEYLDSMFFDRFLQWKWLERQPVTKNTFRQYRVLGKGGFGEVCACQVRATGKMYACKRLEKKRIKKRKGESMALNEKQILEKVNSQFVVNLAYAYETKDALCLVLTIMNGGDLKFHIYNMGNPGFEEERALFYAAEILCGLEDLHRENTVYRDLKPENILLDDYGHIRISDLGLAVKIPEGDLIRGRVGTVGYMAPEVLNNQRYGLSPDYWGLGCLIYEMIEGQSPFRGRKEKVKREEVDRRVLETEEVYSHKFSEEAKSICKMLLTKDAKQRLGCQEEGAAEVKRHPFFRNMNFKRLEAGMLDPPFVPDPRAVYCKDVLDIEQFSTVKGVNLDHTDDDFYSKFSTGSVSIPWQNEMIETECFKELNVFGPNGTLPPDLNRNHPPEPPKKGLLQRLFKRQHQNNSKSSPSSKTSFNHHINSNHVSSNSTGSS

[15] = molecular target: Tyrosine-protein kinase HCK (Homo sapiens) (UniProt P08631); experiment: hemopoietic cell kinase (activated) Millipore kinase panel; details: Compound concentration 10.0 uM
[16] = molecular target: Homeodomain-interacting protein kinase 3 (Homo sapiens) (UniProt Q9H422); experiment: homeodomain interacting protein kinase 3 Millipore kinase panel; details: Compound concentration 10.0 uM
[17] = molecular target: Interleukin-1 receptor-associated kinase 1 (Homo sapiens) (UniProt P51617); experiment: interleukin-1 receptor-associated kinase 1 Millipore kinase panel; details: Compound concentration 10.0 uM
[18] = molecular target: Tyrosine-protein kinase Lck (Homo sapiens) (UniProt P06239); experiment: lymphocyte-specific protein tyrosine kinase (activated) Millipore kinase panel; details: Compound concentration 10.0 uM
Sequence of Tyrosine-protein kinase Lck (Homo sapiens) (P06239 2-509 limits assumed): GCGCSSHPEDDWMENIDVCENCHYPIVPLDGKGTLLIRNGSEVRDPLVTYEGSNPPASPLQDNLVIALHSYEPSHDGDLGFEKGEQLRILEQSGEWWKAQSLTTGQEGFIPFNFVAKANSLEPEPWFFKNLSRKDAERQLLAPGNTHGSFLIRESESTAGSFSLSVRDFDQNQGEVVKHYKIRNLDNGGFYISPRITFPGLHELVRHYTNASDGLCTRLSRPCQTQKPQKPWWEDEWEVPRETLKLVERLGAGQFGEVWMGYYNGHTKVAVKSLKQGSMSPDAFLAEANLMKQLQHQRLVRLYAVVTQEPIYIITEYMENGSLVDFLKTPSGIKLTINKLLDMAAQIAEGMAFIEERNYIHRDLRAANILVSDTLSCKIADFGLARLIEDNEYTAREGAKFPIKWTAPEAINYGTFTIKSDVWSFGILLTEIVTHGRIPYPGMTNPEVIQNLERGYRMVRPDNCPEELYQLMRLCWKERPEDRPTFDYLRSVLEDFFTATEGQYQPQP

[19] = molecular target: Tyrosine-protein kinase Lck (Homo sapiens) (UniProt P06239); experiment: lymphocyte-specific protein tyrosine kinase Millipore kinase panel; details: Compound concentration 10.0 uM
[20] = molecular target: Serine/threonine-protein kinase MARK2 (Homo sapiens) (UniProt Q7KZI7); experiment: MAP/microtubule affinity-regulating kinase 2 Millipore kinase panel; details: Compound concentration 10.0 uM
[21] = molecular target: Mitogen-activated protein kinase 9 (Homo sapiens) (UniProt P45984); experiment: mitogen-activated protein kinase 9 Millipore kinase panel; details: Compound concentration 10.0 uM
[22] = molecular target: Dual specificity mitogen-activated protein kinase kinase 6 (Homo sapiens) (UniProt P52564); experiment: mitogen-activated protein kinase kinase 6 Millipore kinase panel; details: Compound concentration 10.0 uM
[23] = molecular target: Mitogen-activated protein kinase kinase kinase 7 (Homo sapiens) (UniProt O43318); experiment: mitogen-activated protein kinase kinase kinase 7 Millipore kinase panel; details: Compound concentration 10.0 uM
[24] = molecular target: Myosin light chain kinase, smooth muscle (Homo sapiens) (UniProt Q15746); experiment: myosin light chain kinase Millipore kinase panel; details: Compound concentration 10.0 uM
[25] = molecular target: Serine/threonine-protein kinase Nek6 (Homo sapiens) (UniProt Q9HC98); experiment: NIMA -related kinase 6 Millipore kinase panel; details: Compound concentration 10.0 uM
Sequence of Serine/threonine-protein kinase Nek6 (Homo sapiens) (Q9HC98 whole entry): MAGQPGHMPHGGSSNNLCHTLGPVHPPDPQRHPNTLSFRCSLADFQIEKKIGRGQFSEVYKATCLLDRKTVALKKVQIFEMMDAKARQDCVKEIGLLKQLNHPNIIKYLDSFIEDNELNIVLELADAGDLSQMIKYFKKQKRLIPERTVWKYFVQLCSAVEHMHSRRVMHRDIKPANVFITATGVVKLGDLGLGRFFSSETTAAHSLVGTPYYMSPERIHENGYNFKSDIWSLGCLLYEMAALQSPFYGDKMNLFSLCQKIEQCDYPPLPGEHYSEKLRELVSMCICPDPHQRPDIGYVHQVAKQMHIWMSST

[26] = molecular target: Serine/threonine-protein kinase PAK 5 (Homo sapiens) (UniProt Q9P286); experiment: p21 protein -activated kinase 5 Millipore kinase panel; details: Compound concentration 10.0 uM
[27] = molecular target: Phosphorylase b kinase gamma catalytic chain, liver/testis isoform (Homo sapiens) (UniProt P15735); experiment: phosphorylase kinase, gamma 2 Millipore kinase panel; details: Compound concentration 10.0 uM
[28] = molecular target: Protein kinase C theta type (Homo sapiens) (UniProt Q04759); experiment: protein kinase C, theta Millipore kinase panel; details: Compound concentration 10.0 uM
[29] = molecular target: Ribosomal protein S6 kinase alpha-1 (Homo sapiens) (UniProt Q15418); experiment: ribosomal protein S6 kinase, 90kDa, polypeptide 1 Millipore kinase panel; details: Compound concentration 10.0 uM
[30] = molecular target: Serine/threonine-protein kinase 10 (Homo sapiens) (UniProt O94804); experiment: serine/threonine kinase 10 Millipore kinase panel; details: Compound concentration 10.0 uM
[31] = molecular target: Serine/threonine-protein kinase 33 (Homo sapiens) (UniProt Q9BYT3); experiment: serine/threonine kinase 33 Millipore kinase panel; details: Compound concentration 10.0 uM
[32] = molecular target: Serine/threonine-protein kinase TAO2 (Homo sapiens) (UniProt Q9UL54); experiment: TAO kinase 2 Millipore kinase panel; details: Compound concentration 10.0 uM
[33] = molecular target: Tyrosine-protein kinase receptor TYRO3 (Homo sapiens) (UniProt Q06418); experiment: TYRO3 protein tyrosine kinase Millipore kinase panel; details: Compound concentration 10.0 uM
[34] = molecular target: Serine/threonine-protein kinase WNK3 (Homo sapiens) (UniProt Q9BYP7); experiment: WNK lysine deficient protein kinase 3 Millipore kinase panel; details: Compound concentration 10.0 uM
Sequence of Serine/threonine-protein kinase WNK3 (Homo sapiens) (Q9BYP7 whole entry): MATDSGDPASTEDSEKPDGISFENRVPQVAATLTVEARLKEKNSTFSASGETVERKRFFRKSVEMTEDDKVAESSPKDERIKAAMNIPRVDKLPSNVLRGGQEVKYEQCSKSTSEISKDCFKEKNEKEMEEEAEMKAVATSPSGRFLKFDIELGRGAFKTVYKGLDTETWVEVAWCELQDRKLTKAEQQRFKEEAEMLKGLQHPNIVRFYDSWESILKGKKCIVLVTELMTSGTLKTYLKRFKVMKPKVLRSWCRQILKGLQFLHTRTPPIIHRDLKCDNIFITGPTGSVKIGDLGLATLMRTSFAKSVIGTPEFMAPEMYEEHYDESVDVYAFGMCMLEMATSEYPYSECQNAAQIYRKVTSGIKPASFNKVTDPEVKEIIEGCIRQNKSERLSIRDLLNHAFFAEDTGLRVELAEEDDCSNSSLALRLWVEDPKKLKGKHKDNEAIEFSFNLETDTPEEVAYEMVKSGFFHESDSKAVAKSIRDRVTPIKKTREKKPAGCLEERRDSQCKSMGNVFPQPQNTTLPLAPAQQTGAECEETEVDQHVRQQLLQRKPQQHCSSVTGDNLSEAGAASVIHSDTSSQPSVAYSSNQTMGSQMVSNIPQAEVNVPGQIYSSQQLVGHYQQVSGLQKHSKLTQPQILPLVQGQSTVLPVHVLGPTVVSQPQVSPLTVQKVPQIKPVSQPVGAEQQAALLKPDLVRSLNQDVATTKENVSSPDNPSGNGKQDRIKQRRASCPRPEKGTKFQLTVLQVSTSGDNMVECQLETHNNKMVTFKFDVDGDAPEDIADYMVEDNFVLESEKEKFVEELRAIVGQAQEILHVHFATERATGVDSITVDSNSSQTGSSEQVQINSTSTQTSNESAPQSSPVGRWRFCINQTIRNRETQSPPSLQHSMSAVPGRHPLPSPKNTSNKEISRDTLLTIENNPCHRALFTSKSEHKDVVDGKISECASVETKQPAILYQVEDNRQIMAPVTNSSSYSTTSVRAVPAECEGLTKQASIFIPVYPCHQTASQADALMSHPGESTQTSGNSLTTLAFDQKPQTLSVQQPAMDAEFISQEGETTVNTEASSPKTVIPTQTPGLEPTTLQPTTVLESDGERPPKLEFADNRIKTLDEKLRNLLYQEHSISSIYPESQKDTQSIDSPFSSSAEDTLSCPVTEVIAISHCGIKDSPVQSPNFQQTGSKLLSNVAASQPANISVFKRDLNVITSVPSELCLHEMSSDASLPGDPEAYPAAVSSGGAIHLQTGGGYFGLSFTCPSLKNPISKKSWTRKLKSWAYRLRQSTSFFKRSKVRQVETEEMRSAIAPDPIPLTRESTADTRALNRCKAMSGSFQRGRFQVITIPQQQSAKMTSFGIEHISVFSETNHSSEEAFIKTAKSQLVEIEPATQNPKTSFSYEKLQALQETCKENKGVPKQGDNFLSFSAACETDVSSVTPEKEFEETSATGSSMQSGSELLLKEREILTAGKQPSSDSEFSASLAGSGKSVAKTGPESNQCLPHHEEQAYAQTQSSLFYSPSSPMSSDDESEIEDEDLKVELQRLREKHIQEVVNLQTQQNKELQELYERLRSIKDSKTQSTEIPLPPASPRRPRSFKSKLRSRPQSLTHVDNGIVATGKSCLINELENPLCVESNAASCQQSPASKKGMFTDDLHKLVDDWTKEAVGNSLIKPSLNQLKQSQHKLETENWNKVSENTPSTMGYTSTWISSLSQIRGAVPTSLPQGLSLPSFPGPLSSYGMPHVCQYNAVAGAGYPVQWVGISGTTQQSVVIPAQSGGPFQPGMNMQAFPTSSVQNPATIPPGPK

[35] = molecular target: cGMP-specific 3',5'-cyclic phosphodiesterase (Homo sapiens, UniProt O76074); experiment: hPDE5A3 PDE scan
[36] = molecular target: Type-1 angiotensin II receptor (Homo sapiens) (UniProt P30556); experiment: hAT1 Cerep panel; details: Compound concentration 10.0 uM
[37] = molecular target: Neuropeptide Y receptor type 2 (Homo sapiens) (UniProt P49146); experiment: hNPY2 Cerep panel; details: Compound concentration 10.0 uM
Rattus norvegicus [38] = species on record: Rattus norvegicus; experiment: rNa channel Cerep panel; details: Compound concentration 10.0 uM
[39] = molecular target: Kappa-type opioid receptor (Rattus norvegicus) (UniProt P34975); experiment: rOP2 Cerep panel; details: Compound concentration 10.0 uM
Sequence of Kappa-type opioid receptor (Rattus norvegicus) (P34975 whole entry): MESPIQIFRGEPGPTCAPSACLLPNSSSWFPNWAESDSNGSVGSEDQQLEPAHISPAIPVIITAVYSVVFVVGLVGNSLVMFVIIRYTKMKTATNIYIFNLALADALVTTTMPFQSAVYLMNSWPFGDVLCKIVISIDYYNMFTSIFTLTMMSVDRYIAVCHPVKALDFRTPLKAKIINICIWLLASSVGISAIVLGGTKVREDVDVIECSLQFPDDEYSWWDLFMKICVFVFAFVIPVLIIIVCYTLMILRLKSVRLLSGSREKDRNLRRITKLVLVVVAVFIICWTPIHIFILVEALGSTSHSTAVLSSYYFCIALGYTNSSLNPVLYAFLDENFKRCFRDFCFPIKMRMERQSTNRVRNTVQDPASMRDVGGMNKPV

[40] = molecular target: Alpha-2A adrenergic receptor (Rattus norvegicus) (UniProt P22909); experiment: rAa2 Cerep panel; details: Compound concentration 10.0 uM
[41] = molecular target: Sodium-dependent dopamine transporter (Homo sapiens, UniProt Q01959); experiment: hDAT Cerep panel; details: Compound concentration 10.0 uM
[42] = molecular target: Endothelin-1 receptor (Homo sapiens) (UniProt P25101); experiment: hETA Cerep panel; details: Compound concentration 10.0 uM
[43] = molecular target: Glutamate receptor ionotropic, AMPA (Rattus norvegicus) (UniProt P19491+P19492+P19493+P19490); experiment: rGlutamate (ionotropic) AMPA Cerep panel; format: protein-complex assay; details: Compound concentration 10.0 uM
Rattus norvegicus [44] = species on record: Rattus norvegicus; experiment: rGlutamate (ionotropic) kanic acid Cerep panel; details: Compound concentration 10.0 uM
[45] = glyine Cerep panel; details: Compound concentration 10.0 uM
[46] = molecular target: Substance-P receptor (Homo sapiens) (UniProt P25103); experiment: hNK1 Cerep panel; details: Compound concentration 10.0 uM
[47] = molecular target: Mu-type opioid receptor (Homo sapiens) (UniProt P35372); experiment: hOP3 Cerep panel; details: Compound concentration 10.0 uM
[48] = molecular target: Somatostatin receptor (Mus musculus) (UniProt P30935+O08858+P30875+P30873+P49660); experiment: mSST Cerep panel; format: protein assay; details: Compound concentration 10.0 uM
[49] = molecular target: Acetylcholinesterase (Homo sapiens) (UniProt P22303); experiment: hACHE Cerep panel; details: Compound concentration 10.0 uM
Homo sapiens = species on record: Homo sapiens; experiment: hSigma Cerep panel; details: Compound concentration 10.0 uM
[50] = molecular target: Prostaglandin G/H synthase 1 (Homo sapiens) (UniProt P23219); experiment: hCOX1 Cerep panel; details: Compound concentration 10.0 uM
Sequence of Prostaglandin G/H synthase 1 (Homo sapiens) (P23219 whole entry): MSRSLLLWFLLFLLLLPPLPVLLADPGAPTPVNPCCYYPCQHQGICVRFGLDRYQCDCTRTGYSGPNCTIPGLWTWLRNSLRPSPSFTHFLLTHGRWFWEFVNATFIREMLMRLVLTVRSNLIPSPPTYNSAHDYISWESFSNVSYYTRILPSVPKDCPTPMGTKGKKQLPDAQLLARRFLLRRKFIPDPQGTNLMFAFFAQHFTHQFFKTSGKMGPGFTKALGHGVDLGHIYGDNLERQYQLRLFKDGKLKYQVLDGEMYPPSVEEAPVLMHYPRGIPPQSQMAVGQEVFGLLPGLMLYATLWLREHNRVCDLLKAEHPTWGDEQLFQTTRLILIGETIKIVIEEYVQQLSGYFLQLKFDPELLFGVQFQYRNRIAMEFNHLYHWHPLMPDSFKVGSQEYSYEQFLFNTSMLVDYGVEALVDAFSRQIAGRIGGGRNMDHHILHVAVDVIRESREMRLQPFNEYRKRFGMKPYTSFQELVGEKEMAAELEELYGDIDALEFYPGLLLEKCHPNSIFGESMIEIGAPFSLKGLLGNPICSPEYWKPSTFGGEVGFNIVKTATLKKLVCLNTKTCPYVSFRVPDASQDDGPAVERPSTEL

[51] = molecular target: Histamine H2 receptor (Homo sapiens) (UniProt P25021); details: Compound concentration 10.0 uM

Question: For c1ccc(C2CCN(c3cnc4c(N5CCOCC5)nccn34)CC2)cc1, which inhibition [1] is on record?
Answer: The inhibition was 5.84%.

Question: What about the inhibition [2] of the same molecule?
Answer: The inhibition was 1.22%.

Question: For COCCc1ccc(-c2c(C)nc3c(N4CCOCC4)ccnn23)cn1 [JNJ-42396302], which Ki [3] is on record?
Answer: The Ki was 0.011 µM (active).

Question: What about the inhibition [4] of the same molecule?
Answer: The inhibition was -3%.

Question: What about the inhibition [5] of the same molecule?
Answer: The inhibition was 5%.

Question: What about the inhibition [6] of the same molecule?
Answer: The inhibition was 1%.

Question: And the inhibition [7]?
Answer: Its inhibition is -5%.

Question: And the inhibition [8]?
Answer: The inhibition was 0%.

Question: And the inhibition [9]?
Answer: Its inhibition is 3%.

Question: What about the inhibition [10] of the same molecule?
Answer: Its inhibition is 0%.

Question: And the inhibition [11]?
Answer: Its inhibition is -5%.

Question: What about the inhibition [12] of the same molecule?
Answer: Its inhibition is 6%.

Question: What about the inhibition [13] of the same molecule?
Answer: The inhibition was 3%.

Question: What about the inhibition [14] of the same molecule?
Answer: The inhibition was -4%.

Question: And the inhibition [15]?
Answer: The inhibition was -3%.

Question: And the inhibition [16]?
Answer: The inhibition was -6%.

Question: And the inhibition [17]?
Answer: Its inhibition is -3%.

Question: And the inhibition [18]?
Answer: The inhibition was -4%.

Question: What about the inhibition [19] of the same molecule?
Answer: Its inhibition is 13%.

Question: And the inhibition [20]?
Answer: Its inhibition is 9%.

Question: What about the inhibition [21] of the same molecule?
Answer: The inhibition was 0%.

Question: What about the inhibition [22] of the same molecule?
Answer: The inhibition was -5%.

Question: What about the inhibition [23] of the same molecule?
Answer: The inhibition was 5%.

Question: What about the inhibition [24] of the same molecule?
Answer: Its inhibition is 2%.

Question: And the inhibition [25]?
Answer: The inhibition was 1%.

Question: And the inhibition [26]?
Answer: The inhibition was 7%.

Question: And the inhibition [27]?
Answer: The inhibition was -3%.

Question: And the inhibition [28]?
Answer: The inhibition was 2%.

Question: What about the inhibition [29] of the same molecule?
Answer: The inhibition was 9%.

Question: And the inhibition [30]?
Answer: The inhibition was 0%.

Question: And the inhibition [31]?
Answer: Its inhibition is -1%.

Question: And the inhibition [32]?
Answer: The inhibition was 10%.

Question: And the inhibition [33]?
Answer: Its inhibition is 1%.

Question: What about the inhibition [34] of the same molecule?
Answer: Its inhibition is 0%.

Question: What about the Ki [35] of the same molecule?
Answer: The Ki was 8.5 µM.

Question: And the effect [36]?
Answer: Its effect is 14.4%.

Question: And the effect [37]?
Answer: The effect was 4.45%.

Question: And the effect (Rattus norvegicus [38])?
Answer: Its effect is -5.55%.

Question: And the effect [39]?
Answer: Its effect is 1.7%.

Question: What about the effect [40] of the same molecule?
Answer: The effect was 5.2%.

Question: And the effect [41]?
Answer: Its effect is 4.5%.

Question: What about the effect [42] of the same molecule?
Answer: The effect was 5.55%.

Question: What about the effect [43] of the same molecule?
Answer: The effect was 7.7%.

Question: What about the effect (Rattus norvegicus [44]) of the same molecule?
Answer: Its effect is -25.3%.

Question: What about the effect [45] of the same molecule?
Answer: Its effect is -23.1%.

Question: And the effect [46]?
Answer: Its effect is 3.05%.

Question: What about the effect [47] of the same molecule?
Answer: The effect was 2.15%.

Question: What about the effect [48] of the same molecule?
Answer: The effect was 2.8%.

Question: And the effect [49]?
Answer: The effect was 0.2%.

Question: What about the effect (Homo sapiens) of the same molecule?
Answer: Its effect is 1.55%.

Question: And the effect [50]?
Answer: The effect was 13%.

Question: And the inhibition [51]?
Answer: Its inhibition is 12.9%.
